Experimental findings from patent US8901118B2, “Compounds and methods for kinase modulation, and indications therefor” (Plexxikon Inc., priority 2010, dated 2014) are described below.

One test has as its target T1, Flt-3 kinase (Homo sapiens, UniProt P36888).
T1 sequence (P36888 27-993): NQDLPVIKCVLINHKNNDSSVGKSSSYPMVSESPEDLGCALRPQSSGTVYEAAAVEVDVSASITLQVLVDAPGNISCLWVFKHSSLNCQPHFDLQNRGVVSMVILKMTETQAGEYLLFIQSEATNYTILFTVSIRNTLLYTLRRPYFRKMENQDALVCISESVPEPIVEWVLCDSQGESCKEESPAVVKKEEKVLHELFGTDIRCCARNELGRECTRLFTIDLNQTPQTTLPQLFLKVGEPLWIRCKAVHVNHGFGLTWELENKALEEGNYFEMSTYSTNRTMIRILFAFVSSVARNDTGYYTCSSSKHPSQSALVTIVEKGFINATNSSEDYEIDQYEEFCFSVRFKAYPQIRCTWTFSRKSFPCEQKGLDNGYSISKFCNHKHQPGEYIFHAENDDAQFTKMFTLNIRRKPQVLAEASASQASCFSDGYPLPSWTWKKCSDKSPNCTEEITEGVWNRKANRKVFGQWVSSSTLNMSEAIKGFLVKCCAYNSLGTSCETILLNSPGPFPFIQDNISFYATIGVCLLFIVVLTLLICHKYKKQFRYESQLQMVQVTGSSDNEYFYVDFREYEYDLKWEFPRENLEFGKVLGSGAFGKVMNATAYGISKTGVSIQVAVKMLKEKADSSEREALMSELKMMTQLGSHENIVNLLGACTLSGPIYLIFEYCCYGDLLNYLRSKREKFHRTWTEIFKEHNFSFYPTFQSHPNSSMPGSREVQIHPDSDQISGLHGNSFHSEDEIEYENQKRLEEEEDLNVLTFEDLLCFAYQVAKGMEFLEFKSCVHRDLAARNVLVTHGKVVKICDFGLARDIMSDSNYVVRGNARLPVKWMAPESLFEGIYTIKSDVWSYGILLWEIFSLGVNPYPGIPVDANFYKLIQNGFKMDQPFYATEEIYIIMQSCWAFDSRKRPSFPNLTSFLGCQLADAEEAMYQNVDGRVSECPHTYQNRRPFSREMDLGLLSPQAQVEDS
Put plainly: Flt-3 kinase biochemical activity assay (AlphaScreen). Conditions: 100 μM ATP; read-out: Biochemical Inhibition IC50 Flt3. In outline:
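Recombinant kinase (1 ng/well) phosphorylated 30 nM biotin-(E4Y)10 with 100 μM ATP in Hepes pH 7.5 buffer with Mg/Mn, 5% DMSO, for 1 h at room temperature. EDTA-containing AlphaScreen streptavidin donor/PY20 acceptor beads detected phosphotyrosine; IC50 was derived from signal versus concentration.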
Background: Alpha assays give light when donor and acceptor beads are brought close together.

Another test concerns the target Fms kinase (Homo sapiens, UniProt P07333). Put plainly: Fms kinase biochemical activity assay (AlphaScreen, biotin-(E4Y)10 phosphorylation). Conditions: 100 μM ATP; read-out: Biochemical Inhibition IC50 Fms. In short, it runs like this:
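AlphaScreen read-out (PY20 acceptor, streptavidin donor beads, EDTA stop) of biotin-(E4Y)10 phosphorylation, with IC50 taken from the concentration–signal curve. Reaction: 30 nM substrate, 100 μM ATP, 1 ng/well Fms, Hepes pH 7.5 with Mg2+/Mn2+, 5% DMSO, 20 min at 30 °C.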

pIC50: −log10 of the molar value.

Fms kinase, sequence (P07333 20-972): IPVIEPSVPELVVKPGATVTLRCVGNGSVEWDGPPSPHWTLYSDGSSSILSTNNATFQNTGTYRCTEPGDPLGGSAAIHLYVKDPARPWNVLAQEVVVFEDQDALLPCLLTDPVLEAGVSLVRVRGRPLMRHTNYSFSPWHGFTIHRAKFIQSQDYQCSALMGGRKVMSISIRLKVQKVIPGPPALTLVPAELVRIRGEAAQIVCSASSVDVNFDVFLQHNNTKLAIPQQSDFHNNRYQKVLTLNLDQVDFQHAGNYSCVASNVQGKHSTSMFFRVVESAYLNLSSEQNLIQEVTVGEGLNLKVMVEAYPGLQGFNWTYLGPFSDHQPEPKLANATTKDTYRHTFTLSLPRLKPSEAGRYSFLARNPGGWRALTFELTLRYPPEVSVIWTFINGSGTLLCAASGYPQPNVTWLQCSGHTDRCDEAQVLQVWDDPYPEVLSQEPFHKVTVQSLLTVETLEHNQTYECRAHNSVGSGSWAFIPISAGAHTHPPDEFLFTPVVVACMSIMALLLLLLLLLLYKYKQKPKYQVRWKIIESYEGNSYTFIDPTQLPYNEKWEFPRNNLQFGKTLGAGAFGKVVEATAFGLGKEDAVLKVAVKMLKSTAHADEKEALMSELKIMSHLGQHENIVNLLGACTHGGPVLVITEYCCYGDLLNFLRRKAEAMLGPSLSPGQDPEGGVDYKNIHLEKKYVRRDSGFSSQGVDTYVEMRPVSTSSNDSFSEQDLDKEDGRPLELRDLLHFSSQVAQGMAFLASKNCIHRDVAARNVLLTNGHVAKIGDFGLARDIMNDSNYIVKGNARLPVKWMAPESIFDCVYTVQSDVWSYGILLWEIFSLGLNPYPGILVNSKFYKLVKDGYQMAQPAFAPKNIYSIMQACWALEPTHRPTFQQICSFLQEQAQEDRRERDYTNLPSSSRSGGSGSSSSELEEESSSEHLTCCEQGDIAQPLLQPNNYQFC

Turning to `CCOc1ccc(Nc2ccc(C(=O)c3c[nH]c4ncnc(OC)c34)c(F)n2)cn1` [Compound P-4024, [6-(6-Ethoxy-pyridin-3-ylamino)-2-fluoro-pyridin-3-yl]-(4-methoxy-7H-pyrrolo[2,3-d]pyrimidin-5-yl)-methanone], the pIC50 is more than 7.00 at Flt-3 kinase and more than 6.00 on Fms kinase.
On the same counts, the results for `CCOc1ncnc2[nH]cc(C(=O)c3ccc(Nc4ccc(OC)nc4)nc3F)c12` [Compound P-4025, (4-Ethoxy-7H-pyrrolo[2,3-d]pyrimidin-5-yl)-[2-fluoro-6-(6-methoxy-pyridin-3-ylamino)-pyridin-3-yl]-methanone] are more than 6.00 and more than 6.00.
For `CCOc1ccc(Nc2ccc(Cc3c[nH]c4ncnc(C5CC5)c34)c(F)n2)cn1` [Compound P-4026, [5-(4-Cyclopropyl-7H-pyrrolo[2,3-d]pyrimidin-5-ylmethyl)-6-fluoro-pyridin-2-yl]-(6-ethoxy-pyridin-3-yl)-amine], the pIC50 on Flt-3 kinase was more than 7.00; on Fms kinase, more than 8.00.
On the same counts, the results for `CCOc1ccc(Nc2ccc(C(=O)c3c[nH]c4ncnc(C5CC5)c34)c(F)n2)cn1` [Compound P-4027, (4-Cyclopropyl-7H-pyrrolo[2,3-d]pyrimidin-5-yl)-[6-(6-ethoxy-pyridin-3-ylamino)-2-fluoro-pyridin-3-yl]-methanone] are more than 8.00 and more than 7.00.
Consider `CCc1ccc(Nc2ccc(Cc3c[nH]c4ncnc(C5CC5)c34)c(F)n2)cn1` [Compound P-4028, [5-(4-Cyclopropyl-7H-pyrrolo[2,3-d]pyrimidin-5-ylmethyl)-6-fluoro-pyridin-2-yl]-(6-ethyl-pyridin-3-yl)-amine], for which the pIC50 at Flt-3 kinase was more than 7.00; on Fms kinase it was more than 8.00.
On the same counts, the results for `CCc1ccc(Nc2ccc(C(=O)c3c[nH]c4ncnc(C5CC5)c34)c(F)n2)cn1` [Compound P-4029, (4-Cyclopropyl-7H-pyrrolo[2,3-d]pyrimidin-5-yl)-[6-(6-ethyl-pyridin-3-ylamino)-2-fluoro-pyridin-3-yl]-methanone] are more than 8.00 and more than 8.00.
On the same counts, the results for `Cc1ccc(Nc2ccc(Cc3c[nH]c4ncnc(C5CC5)c34)c(F)n2)cn1` [Compound P-4030, [5-(4-Cyclopropyl-7H-pyrrolo[2,3-d]pyrimidin-5-ylmethyl)-6-fluoro-pyridin-2-yl]-(6-methyl-pyridin-3-yl)-amine] are more than 6.00 and more than 8.00.
On the same counts, the results for `Cc1ccc(Nc2ccc(C(=O)c3c[nH]c4ncnc(C5CC5)c34)c(F)n2)cn1` [Compound P-4031, (4-Cyclopropyl-7H-pyrrolo[2,3-d]pyrimidin-5-yl)-[2-fluoro-6-(6-methyl-pyridin-3-ylamino)-pyridin-3-yl]-methanone] are more than 7.00 and more than 7.00.
Regarding `CCOc1ccc(Nc2ccc(C(=O)c3c[nH]c4ncnc(C)c34)c(F)n2)cn1` [Compound P-4032, [6-(6-Ethoxy-pyridin-3-ylamino)-2-fluoro-pyridin-3-yl]-(4-methyl-7H-pyrrolo[2,3-d]pyrimidin-5-yl)-methanone], the pIC50 on Flt-3 kinase and at Fms kinase was more than 7.00 each time.
With `CCn1cc(Nc2ccc(Cc3c[nH]c4ncnc(C5CC5)c34)c(F)n2)cn1` [Compound P-4036, [5-(4-Cyclopropyl-7H-pyrrolo[2,3-d]pyrimidin-5-ylmethyl)-6-fluoro-pyridin-2-yl]-(1-ethyl-1H-pyrazol-4-yl)-amine], the pIC50 was less than 6.00 at Flt-3 kinase and more than 8.00 on Fms kinase.
On the same counts, the results for `CCn1cc(Nc2ccc(C(=O)c3c[nH]c4ncnc(C5CC5)c34)c(F)n2)cn1` [Compound P-4037, (4-Cyclopropyl-7H-pyrrolo[2,3-d]pyrimidin-5-yl)-[6-(1-ethyl-1H-pyrazol-4-ylamino)-2-fluoro-pyridin-3-yl]-methanone] are more than 6.00 and more than 7.00.

The term pIC50 denotes the IC50 on a negative log10 scale, so that one unit is a factor of ten.
